# Source: patent publication US8758816B2, “Compositions comprising azelastine and methods of use thereof” (priority 2004, dated 2014)
# Test system: patients with seasonal allergic rhinitis (SAR)
# Assay: MP 428 study: individual symptom severity scores (runny nose, itchy nose, sneezing, congestion; 0-3 scale)
# Format: in vivo, human
# Conditions: Intent-to-Treat Population
# Description: A two-week, randomized, double-blind study, which evaluated the effects of the co-administration of ASTELIN® (azelastine hydrochloride (HCl)) and FLONASE® (fluticasone propionate) compared to either product alone in patients with seasonal allergic rhinitis (SAR) was conducted during the 2006 Texas mountain cedar season. After a 5-day placebo lead-in period, 151 patients with moderate-to-severe allergic rhinitis symptoms were randomized to either: (1) (49 total patients) ASTELIN® (azelastine hydrochloride (HCl)) plus placebo saline nasal spray 2 sprays per nostril, 15 minutes apart, twice daily (AM & PM); (2) (50 total patients) FLONASE® (fluticasone propionate) plus placebo saline nasal spray, 2 sprays per nostril, 15 minutes apart, once daily (AM) and two sessions of placebo saline nasal spray, 2 sprays per nostril, 15 minutes apart (PM); or (3) (52 total patients) the co-administration of ASTELIN® (azelastine hydrochloride (HCl)) 2 sprays per nostril plus FLONASE® (fluticasone propionate) 2 sprays per nostril (AM), 15 minutes apart, and ASTELIN® (azelastine hydrochloride (HCl)) 2 sprays per nostril plus placebo saline nasal spray, 15 minutes apart, (PM) for a 2-week double-blind treatment period.
# The primary efficacy variable was the change from baseline in the Total Nasal Symptom Score (TNSS), which comprised sneezing, itchy nose, runny nose, and nasal congestion (individual symptoms scores were assigned a value between 0 and 3, where 0=no symptoms and 3=severe symptoms). This study was not statistically designed to assess the differences between ASTELIN® and FLONASE®.
# The results of the clinical trial are summarized and presented in Appendix A hereinbelow and in FIGS. 1-6. […] FIGS. 2-5 show the mean improvement in severity score (0-3 scale) from baseline for the symptoms of runny nose, itchy nose, sneezing and congestion, respectively.
compound,measurement,setting,value
"CCC(=O)O[C@]1(C(=O)SCF)[C@H](C)C[C@H]2[C@@H]3C[C@H](F)C4=CC(=O)C=C[C@]4(C)[C@@]3(F)[C@@H](O)C[C@@]21C [Fluticasone, fluticasone propionate]","Percent Change from Baseline in AM and PM Combined Nasal Symptom Score: Congestion, LS Mean",Day 5,−18.74%
same,"Percent Change from Baseline in AM and PM Combined Nasal Symptom Score: Congestion, Mean",Day 5,−19.38%
same,"Percent Change from Baseline in AM and PM Combined Nasal Symptom Score: Congestion, Median",Day 5,−14.29%
same,"Percent Change from Baseline in AM and PM Combined Nasal Symptom Score: Itchy Nose, LS Mean",Day 5,−25.02%
same,"Percent Change from Baseline in AM and PM Combined Nasal Symptom Score: Itchy Nose, Mean",Day 5,−24.64%
same,"Percent Change from Baseline in AM and PM Combined Nasal Symptom Score: Itchy Nose, Median",Day 5,−25.00%
same,"Percent Change from Baseline in AM and PM Combined Nasal Symptom Score: Runny Nose, LS Mean",Day 5,−22.06%
same,"Percent Change from Baseline in AM and PM Combined Nasal Symptom Score: Runny Nose, Mean",Day 5,−22.31%
same,"Percent Change from Baseline in AM and PM Combined Nasal Symptom Score: Runny Nose, Median",Day 5,−21.31%
same,"Percent Change from Baseline in AM and PM Combined Nasal Symptom Score: Sneezing, LS Mean",Day 5,−35.40%
same,"Percent Change from Baseline in AM and PM Combined Nasal Symptom Score: Sneezing, Mean",Day 5,−34.14%
same,"Percent Change from Baseline in AM and PM Combined Nasal Symptom Score: Sneezing, Median",Day 5,−33.33%
same,"Change from Baseline in AM and PM Combined Nasal Symptom Score: Congestion, LS Mean",Day 6,−1.03
same,"Change from Baseline in AM and PM Combined Nasal Symptom Score: Congestion, Mean",Day 6,−1.10
same,"Change from Baseline in AM and PM Combined Nasal Symptom Score: Congestion, Median",Day 6,−0.83
same,"Change from Baseline in AM and PM Combined Nasal Symptom Score: Itchy Nose, LS Mean",Day 6,−1.21
same,"Change from Baseline in AM and PM Combined Nasal Symptom Score: Itchy Nose, Mean",Day 6,−1.21
same,"Change from Baseline in AM and PM Combined Nasal Symptom Score: Itchy Nose, Median",Day 6,−1.00
same,"Change from Baseline in AM and PM Combined Nasal Symptom Score: Runny Nose, LS Mean",Day 6,−1.35
same,"Change from Baseline in AM and PM Combined Nasal Symptom Score: Runny Nose, Mean",Day 6,−1.35
same,"Change from Baseline in AM and PM Combined Nasal Symptom Score: Runny Nose, Median",Day 6,−1.00
same,"Change from Baseline in AM and PM Combined Nasal Symptom Score: Sneezing, LS Mean",Day 6,−1.51
same,"Change from Baseline in AM and PM Combined Nasal Symptom Score: Sneezing, Mean",Day 6,−1.44
same,"Change from Baseline in AM and PM Combined Nasal Symptom Score: Sneezing, Median",Day 6,−1.27
same,"Percent Change from Baseline in AM and PM Combined Nasal Symptom Score: Congestion, LS Mean",Day 6,−19.32%
same,"Percent Change from Baseline in AM and PM Combined Nasal Symptom Score: Congestion, Mean",Day 6,−20.16%
same,"Percent Change from Baseline in AM and PM Combined Nasal Symptom Score: Congestion, Median",Day 6,−14.29%
same,"Percent Change from Baseline in AM and PM Combined Nasal Symptom Score: Itchy Nose, LS Mean",Day 6,−27.12%
same,"Percent Change from Baseline in AM and PM Combined Nasal Symptom Score: Itchy Nose, Mean",Day 6,−26.87%
same,"Percent Change from Baseline in AM and PM Combined Nasal Symptom Score: Itchy Nose, Median",Day 6,−24.76%
same,"Percent Change from Baseline in AM and PM Combined Nasal Symptom Score: Runny Nose, LS Mean",Day 6,−22.60%
same,"Percent Change from Baseline in AM and PM Combined Nasal Symptom Score: Runny Nose, Mean",Day 6,−22.47%
same,"Percent Change from Baseline in AM and PM Combined Nasal Symptom Score: Runny Nose, Median",Day 6,−18.64%
same,"Percent Change from Baseline in AM and PM Combined Nasal Symptom Score: Sneezing, LS Mean",Day 6,−32.10%
same,"Percent Change from Baseline in AM and PM Combined Nasal Symptom Score: Sneezing, Mean",Day 6,−31.22%
same,"Percent Change from Baseline in AM and PM Combined Nasal Symptom Score: Sneezing, Median",Day 6,−32.77%
same,"Change from Baseline in AM and PM Combined Nasal Symptom Score: Congestion, LS Mean",Day 7,−1.03
same,"Change from Baseline in AM and PM Combined Nasal Symptom Score: Congestion, Mean",Day 7,−1.10
same,"Change from Baseline in AM and PM Combined Nasal Symptom Score: Congestion, Median",Day 7,−1.08
same,"Change from Baseline in AM and PM Combined Nasal Symptom Score: Itchy Nose, LS Mean",Day 7,−1.30
same,"Change from Baseline in AM and PM Combined Nasal Symptom Score: Itchy Nose, Mean",Day 7,−1.27
same,"Change from Baseline in AM and PM Combined Nasal Symptom Score: Itchy Nose, Median",Day 7,−1.00
same,"Change from Baseline in AM and PM Combined Nasal Symptom Score: Runny Nose, LS Mean",Day 7,−1.28
same,"Change from Baseline in AM and PM Combined Nasal Symptom Score: Runny Nose, Mean",Day 7,−1.31
same,"Change from Baseline in AM and PM Combined Nasal Symptom Score: Runny Nose, Median",Day 7,−1.45
same,"Change from Baseline in AM and PM Combined Nasal Symptom Score: Sneezing, LS Mean",Day 7,−1.44
same,"Change from Baseline in AM and PM Combined Nasal Symptom Score: Sneezing, Mean",Day 7,−1.33
same,"Change from Baseline in AM and PM Combined Nasal Symptom Score: Sneezing, Median",Day 7,−1.20
same,"Percent Change from Baseline in AM and PM Combined Nasal Symptom Score: Congestion, LS Mean",Day 7,−19.42%
same,"Percent Change from Baseline in AM and PM Combined Nasal Symptom Score: Congestion, Mean",Day 7,−20.17%
same,"Percent Change from Baseline in AM and PM Combined Nasal Symptom Score: Congestion, Median",Day 7,−21.31%
same,"Percent Change from Baseline in AM and PM Combined Nasal Symptom Score: Itchy Nose, LS Mean",Day 7,−27.79%
same,"Percent Change from Baseline in AM and PM Combined Nasal Symptom Score: Itchy Nose, Mean",Day 7,−26.92%
same,"Percent Change from Baseline in AM and PM Combined Nasal Symptom Score: Itchy Nose, Median",Day 7,−23.55%
same,"Percent Change from Baseline in AM and PM Combined Nasal Symptom Score: Runny Nose, LS Mean",Day 7,−18.01%
same,"Percent Change from Baseline in AM and PM Combined Nasal Symptom Score: Runny Nose, Mean",Day 7,−18.63%
same,"Percent Change from Baseline in AM and PM Combined Nasal Symptom Score: Runny Nose, Median",Day 7,−28.99%
same,"Percent Change from Baseline in AM and PM Combined Nasal Symptom Score: Sneezing, LS Mean",Day 7,−31.86%
same,"Percent Change from Baseline in AM and PM Combined Nasal Symptom Score: Sneezing, Mean",Day 7,−30.14%
same,"Percent Change from Baseline in AM and PM Combined Nasal Symptom Score: Sneezing, Median",Day 7,−31.32%
same,"Change from Baseline in AM and PM Combined Nasal Symptom Score: Congestion, LS Mean",Day 8,−0.94
same,"Change from Baseline in AM and PM Combined Nasal Symptom Score: Congestion, Mean",Day 8,−0.98
same,"Change from Baseline in AM and PM Combined Nasal Symptom Score: Congestion, Median",Day 8,−0.83
same,"Change from Baseline in AM and PM Combined Nasal Symptom Score: Itchy Nose, LS Mean",Day 8,−1.33
same,"Change from Baseline in AM and PM Combined Nasal Symptom Score: Itchy Nose, Mean",Day 8,−1.29
same,"Change from Baseline in AM and PM Combined Nasal Symptom Score: Itchy Nose, Median",Day 8,−1.15
same,"Change from Baseline in AM and PM Combined Nasal Symptom Score: Runny Nose, LS Mean",Day 8,−0.95
same,"Change from Baseline in AM and PM Combined Nasal Symptom Score: Runny Nose, Mean",Day 8,−0.98
same,"Change from Baseline in AM and PM Combined Nasal Symptom Score: Runny Nose, Median",Day 8,−0.73
same,"Change from Baseline in AM and PM Combined Nasal Symptom Score: Sneezing, LS Mean",Day 8,−1.41
same,"Change from Baseline in AM and PM Combined Nasal Symptom Score: Sneezing, Mean",Day 8,−1.29
same,"Change from Baseline in AM and PM Combined Nasal Symptom Score: Sneezing, Median",Day 8,−1.25
same,"Percent Change from Baseline in AM and PM Combined Nasal Symptom Score: Congestion, LS Mean",Day 8,−17.55%
same,"Percent Change from Baseline in AM and PM Combined Nasal Symptom Score: Congestion, Mean",Day 8,−17.88%
same,"Percent Change from Baseline in AM and PM Combined Nasal Symptom Score: Congestion, Median",Day 8,−14.29%
same,"Percent Change from Baseline in AM and PM Combined Nasal Symptom Score: Itchy Nose, LS Mean",Day 8,−28.16%
same,"Percent Change from Baseline in AM and PM Combined Nasal Symptom Score: Itchy Nose, Mean",Day 8,−27.33%
same,"Percent Change from Baseline in AM and PM Combined Nasal Symptom Score: Itchy Nose, Median",Day 8,−30.22%
same,"Percent Change from Baseline in AM and PM Combined Nasal Symptom Score: Runny Nose, LS Mean",Day 8,−11.82%
same,"Percent Change from Baseline in AM and PM Combined Nasal Symptom Score: Runny Nose, Mean",Day 8,−12.38%
same,"Percent Change from Baseline in AM and PM Combined Nasal Symptom Score: Runny Nose, Median",Day 8,−14.29%
same,"Percent Change from Baseline in AM and PM Combined Nasal Symptom Score: Sneezing, LS Mean",Day 8,−28.16%
same,"Percent Change from Baseline in AM and PM Combined Nasal Symptom Score: Sneezing, Mean",Day 8,−26.04%
same,"Percent Change from Baseline in AM and PM Combined Nasal Symptom Score: Sneezing, Median",Day 8,−31.03%
